# Measurements: patent US9944991B2, “Compositions and methods for diagnosis, prognosis and treatment of hematological malignancies” (Dana-Farber Cancer Institute, Inc., priority 2012, dated 2018)
# Legend:
# NF-κB p65 = NF-κB p65 DNA-binding activity (Active Motif TransAM) in nuclear extracts; type: cell-based, human; conditions: BCWM.1 and MWCL.1; everolimus 1 nM or bortezomib 5 nM, 4 hours; TNF-α 10 ng/mL
# Excerpt: NF-κB activity was investigated using the Active Motif TransAM kits, a DNA-binding enzyme-linked immunosorbent assay (ELISA)-based assay (Active Motif North America, Carlsbad, Calif.).
# miRNA-155 = assay: qRT-PCR of miRNA-155 level in WM cell lines; type: cell-based, human; conditions: BCWM.1; MWCL.1; 0.1-1-10 nM, 12 hours
# Protocol: qRT-PCR for miRNA-155 (TaqMan microRNA Assays, Applied Biosystems, Foster City, Calif.) was performed on an Applied Biosystems AB7500 Real Time PCR system.
# [1] = test system: mammalian target of rapamycin (mTOR); assay: Immunohistochemistry of p-4EBP1 and p-S6R in bone marrow biopsies pre- and post-everolimus; type: in vivo, human
# Excerpt: Bone marrow biopsies from WM patients at pretreatment and at the end of therapy were fixed in Zenker's formalin, embedded in paraffin blocks, and sectioned. Sections were stained for phospho(p)-4EBP1 and p-S6R (Cell Signaling Technology, Inc.). Signal quantification for each target was obtained from four different areas, on matched pre- and post-everolimus treatment of 4 patients presenting with partial response; and on matched pre- and post-everolimus treatment of 3 patients presenting with stable disease. Numbers of positive cells were obtained on 4 different fields of the bone marrow biopsy, and average and standard deviation provided, as previously described (Fingar D. C. et al., Mol. Cell. Biol., 24(1):200-16 (2004).
# In contrast, everolimus-dependent modulation of phosphorylated ribosomal protein S6 (phospho(p)-S6R) and p-4EBP1 was not observed in those patients with stable disease (FIG. 9C).
# [2] = test system: WM and IgM low-grade lymphoma cells (BCWM.1; MWCL.1; RL); assay: DNA fragmentation (Cell Death Detection ELISA), apoptosis; type: cell-based, human; conditions: 0.1-10 nM, 24 hours
# Excerpt: Cell Death Detection ELISA (Roche Applied Science, Indianapolis, Ind.) was used to quantify DNA fragmentation, as per the manufacturer's instructions, and as previously described (Sacco A. et al., Clin Cancer Res., 17(7):1753-64 (2011)).
# BCWM.1 and MWCL.1 cells [3] = assay: Caspase-9, caspase-3 and PARP cleavage (Western blot, Caspase 3/7 Glo Assay); type: cell-based, human; conditions: 0.1-10 nM, 24 hours
# Protocol: WM cell lines have been exposed to everolimus (0.1-10 nM) for 24 hours and caspase activation has been assessed using Caspase 3/7 Glo Assay (Promega, Madison, Wis.), according to manufacturer's procedure.
# BCWM.1 cells [4] = assay: Immunoblotting of cyclin D1, cyclin D2, p27Kip1, p21Cip1; type: cell-based, human; conditions: 0.1-10 nM, 12 hours
# Protocol: (§2) WM and IgM secreting cell lines were harvested and lysed using lysis buffer (Cell Signaling Technology, Beverly, Mass.) reconstituted with 5 mM NaF, 2 mM Na3VO4, 1 mM PMSF (polymethilsulfonyl fluoride), 5 μg/mL leupeptine, and 5 μg/mL aprotinin. Whole-cell lysates (50 μg/lane) were subjected to sodium dodecyl sulfate-polyacrylamide gel eletrophoresis (SDS-PAGE) and transferred to polyvinyldene fluoride (PVDF) membrane (Bio-Rad Laboratories, Hercules, Calif.). The antibodies used for immunoblotting included: anti-caspase3-, -caspase-9, -PARP, phospho (p)-mTOR, p-p70S6K, p-4EBP1, p-FAK-cyclinD1, -cyclinD2-p27^Kip1, -p21^Cip1, p-Akt, -Akt, pERK, -ERK, p-GSK3, -p-STAT3, -p-p65, -p-p50, -p-IkB, -nucleolin and -tubulin antibodies (Cell Signaling, Danvers, Mass.).
# mTOR = assay: Western blot of p-mTOR, p-p70S6K, p-4EBP1 in BCWM.1 and MWCL.1 cells; type: cell-based, human; conditions: 0.1-10 nM, 6 hours
# Protocol: as §2
# BCWM.1 cells [5] = assay: [3H]-thymidine uptake of BCWM.1 cells in presence of endothelial cells (HUVECs); type: cell-based, human; conditions: 0.01-10 nM, 48 hours
# BCWM.1 cells [6] = assay: Cell cycle analysis, PI staining and flow cytometry; type: cell-based, human; conditions: for cells in S phase: 12 hours (control 36.29%); for G1 phase BCWM.1 cells: 12 hours (control 52.52%)
# [7] = test system: primary peripheral blood-derived CD19+ cells; assay: MTT cytotoxicity on healthy donor cells; type: cell-based, human; conditions: healthy individuals, 60-1000 nM, 48 hours
# BMSCs = assay: MTT viability of BMSCs; type: cell-based, human; conditions: 0.1-10 nM, 48 hours
# Protocol: (§1) The bone marrow (BM) microenvironment confers growth and induces drug resistance in malignant cells (Mitsiades C. S. et al., Eur. J. Cancer., 42(11):1564-73 (2006)). It was therefore sought to determine the anti-tumor activity of everolimus in the presence of the BM microenvironment. It was first investigated whether everolimus inhibits WM cell growth in the context of the BM milieu. BCWM.1 cells were exposed to everolimus (0.1-10 nM) in the presence or absence of BMSCs for 48 hours. The viability of BMSCs assessed by MTT was not affected by everolimus treatment (data not shown). […] Next, the efficacy of everolimus in affecting migration and adhesion of WM cells was evaluated. […] To study the effect of everolimus on the migration of WM cells, BCWM.1 cells were incubated with everolimus (0.01-1 nM) for 4 hours. […] Cells were then subjected to migration as previously reported (Roccaro A. M. et al., Blood, 113(26):6669-80 (2009)).
# [8] = test system: primary WM bone-marrow derived CD19+ cells; assay: MTT cytotoxicity on primary WM cells; type: cell-based, human; conditions: 0.1-10 nM, 48 hours, 4 patients with relapsed/refractory WM
# Protocol: Next, it was sought to determine the underlying mechanisms that led to everolimus-dependent anti-tumor effect in WM. The activity of everolimus in targeting WM cells was tested in primary WM CD19^+ cells, and WM and IgM secreting lymphoma cell lines (BCWM1; MWCL.1; RL), as well as in normal PBMC-derived CD19^+ cells. […] Everolimus-induced toxicity in WM and IgM secreting lymphoma cell lines was subsequently validated.
# BCWM.1 cells [9] = assay: [3H]-TdR uptake of BCWM.1 cells adherent to BMSCs; type: cell-based, human; conditions: 0.1-10 nM, 48 hours
# Protocol: as §1
# [10] = patients with relapsed or refractory WM, oral; cited from earlier work
# BCWM.1 cells [11] = assay: Transwell migration assay towards SDF-1; type: cell-based, human; conditions: 0.01-1 nM, 4 hours, 30 nM SDF-1
# Protocol: Transwell migration assay (Costar; Corning, Acton, Mass.) was performed using BCWM.1 cells in the presence or absence of 30 nM SDF-1, as described (Azab A. K., et al., Blood, 114(3):619-29 (2009)).
# as §1
# BCWM.1 cells [12] = assay: Thymidine uptake cell proliferation assay; type: cell-based, human; conditions: 0.01-40 nM, 48 hours
# BCWM.1 cells [13] = conditions: everolimus 0.5 nM alone, 48 hours
# BCWM.1 cells [14] = assay: MTT cytotoxicity assay; type: cell-based, human
# BCWM.1 cells [15] = assay: Western blot of p-4EBP1 and p-70S6K in BCWM.1 cells cultured with HUVECs; conditions: 0.01-10 nM, 6 hours
# Protocol: as §2
# It was next sought to determine the effect of everolimus on modulating vessel formation. […] The impact of everolimus to target WM cells in presence of endothelial cells was next evaluated at signaling level.
# [16] = test system: WM and IgM low grade lymphoma cell lines (BCWM.1, MWCL.1 and RL); assay: Adhesion to primary WM bone marrow stromal cells; type: cell-based, human; conditions: 0.01-1 nM
# Protocol: as §1
# BCWM.1 and MWCL.1 cells [17] = assay: MTT cytotoxicity in miRNA-155 knockdown probe-transfected WM cell lines; type: cell-based, human; conditions: 0.1-1-10 nM, 48 hours, knockdown probe vs scramble probe
# WM-WSU, RL, MWCL.1 cells = assay: MTT cytotoxicity on IgM low-grade lymphoma cells; type: cell-based, human; conditions: 0.01-40 nM, 48 hours
# HUVECs = assay: Morphogenesis assay on Matrigel (capillary tubule formation); type: cell-based, human
# Protocol: Unpolymerized Matrigel (17 mg/mL; Becton Dickinson, Mountain View, Calif.) was placed (50 μL/well) in a 96-well microtiter plate (0.32 cm2/well) and polymerized for 1 hour at 37° C. HUVECs and MMECs (5×10^3 per well) in 200 μL of DMEM/10% FCS (positive control), serum-free medium (negative control), as well as in the presence or absence of everolimus (0-0.01-0.1-1-10 nM) were layered onto the Matrigel surface. After 6 hours of incubation in a 5% CO2 humidified atmosphere at 37° C., cell growth and tridimensional organization were observed using a reverted phase-contrast light microscope, as described (Roccaro A. M. et al., Cancer Res., 66(1):184-91 (2006)).
# BCWM.1 cells [18] = assay: Antibody-dependent cell-mediated cytotoxicity assay (ADCC); type: cell-based, human; conditions: E/T ratio of 10:1; rituximab 10 μg/mL, everolimus 1 nM, bortezomib 5 nM
# Protocol: Briefly, interleukin-2 (IL-2; R&D, Minneapolis, Minn.)-activated PBMCs were used as effector cells and calcein-AM-labeled BCWM.1 cell line, as targets. PBMCs were separated from leukopheresis products from healthy donors over Ficoll-Hypaque solution after informed consent. Effector cells were used immediately at 37° C. in RPMI complete media after being activated with IL-2 (100 UI/mL for 36 hours). Target cells were labeled with calcein-AM for 1 hour at 37° C., washed thrice, and plated in triplicate in 96-well plates (5000 cells per well). ADCC was performed in the presence of rituximab (10 μg/mL) or human control IgG1 (2 ng/mL) at various effector-target (E/T) ratios (10:1, 20:1, and 40:1). The 96-well plates were centrifuged at 30 g for 2 minutes at room temperature, followed by a 4-hour incubation at 37° C. Culture supernatants were transferred to a Black ViewPlate-96 plate and read on Wallac VICTOR2 using 492/520 nm filter set (Perkin Elmer). Combinatory studies using everolimus (1 nM), Bortezomib (5 nM) and Rituximab (10 μg/mL) were also performed. This assay was valid only if (mean maximum release−medium control release)/(mean spontaneous release−medium control release) was more than 7. Spontaneous release is the CPM in the supernatant from wells containing target cells alone. Maximum release is the supernatants of wells containing target cells and Triton X-100. […]
molecule,measurement,setting,value
"CO[C@H]1C[C@@H]2CC[C@@H](C)[C@@](O)(O2)C(=O)C(=O)N2CCCC[C@H]2C(=O)O[C@H]([C@H](C)C[C@@H]2CC[C@@H](OCCO)[C@H](OC)C2)CC(=O)[C@H](C)/C=C(\C)[C@@H](O)[C@@H](OC)C(=O)[C@H](C)C[C@H](C)/C=C/C=C/C=C/1C [everolimus, 40-O-(2-hydroxyethyl) derivative of sirolimus (rapamycin)]","TNF-α-induced NF-κB recruitment to the nucleus, single agents",NF-κB p65,similarly inhibited
same,miRNA155 level,miRNA-155,inhibited miRNA155 level in a dose-dependent manner
same,phosphorylation of S6R and 4EBP1 in bone marrow biopsies,"[1]; patients with partial response, pre- vs post-everolimus",inhibition of phosphorylation
same,modulation of p-S6R and p-4EBP1 in bone marrow biopsies,[1]; patients with stable disease,not observed
same,apoptosis (DNA fragmentation),[2],induced apoptosis in a dose-dependent manner
same,"caspase-9, -3 and PARP cleavage",BCWM.1 and MWCL.1 cells [3],"induced caspase-9, -3 and PARP cleavage in a dose dependent manner"
same,cyclin D1 and cyclin D2,BCWM.1 cells [4],down-regulation
same,"cyclin kinase inhibitor proteins p27Kip1, p21Cip1",BCWM.1 cells [4],up-regulation
same,"p-mTOR, p-p70S6K and p-4EBP1",mTOR,inhibition
same,WM cell proliferation in presence of endothelial cells,BCWM.1 cells [5],"reduced WM cell proliferation, despite the presence of endothelial cells"
same,cells in S phase,BCWM.1 cells [6]; 0.1 nM everolimus,29.14%
same,G1 phase BCWM.1 cells,BCWM.1 cells [6]; 0.1 nM everolimus,61.25%
same,cells in S phase,BCWM.1 cells [6]; 1 nM everolimus,21.71%
same,G1 phase BCWM.1 cells,BCWM.1 cells [6]; 1 nM everolimus,70.98%
same,cell cycle progression,"BCWM.1 cells [6]; 0.1-10 nM, 12 hours",cell cycle arrest
same,cytotoxicity,[7],did not show cytotoxicity
same,viability of BMSCs,BMSCs,not affected
same,cytotoxic effect,[8],significantly induced toxicity in all the 4 samples
same,BMSC-triggered proliferation of BCWM.1 cells,BCWM.1 cells [9],inhibited by everolimus in a dose-dependent manner
same,minor response,[10],28%
same,overall response rate,[10],70%
same,partial response (PR),[10],42%
same,migration towards SDF-1,BCWM.1 cells [11],"inhibited WM cell migration towards SDF-1, in a dose-dependent manner"
same,migration towards SDF-1,BCWM.1 cells [11]; listed as Everolimus,inhibited SDF-1-induced migration
same,cell proliferation,BCWM.1 cells [12],inhibiting cell proliferation
same,"cytotoxicity, % of BCWM.1 cells",BCWM.1 cells [13],24%
same,cytotoxicity at doses used for migration,"BCWM.1 cells [14]; 0.01-1 nM, 4 hours",did not induce cytotoxicity
same,cytotoxicity,"BCWM.1 cells [14]; 0.01-40 nM, 48 hours",inducing cytotoxicity in a dose-dependent manner
same,endothelial cell-dependent phosphorylation of 4EBP1 and 70SK in WM cells,BCWM.1 cells [15],inhibited endothelial cell-dependent phosphorylation of 4EBP1 and 70SK
same,cell adhesion to primary WM bone marrow stromal cells,[16],inhibited WM cell adhesion in a dose-dependent manner
same,everolimus-dependent induction of toxicity after miRNA155 knock down,BCWM.1 and MWCL.1 cells [17],partially inhibited by knocking down miRNA155
same,cytotoxicity,"WM-WSU, RL, MWCL.1 cells",induction of cytotoxicity was validated
same,capillary formation,HUVECs; 1 nM everolimus,almost complete inhibition of capillary formation
same,endothelial cell morphogenesis on Matrigel,HUVECs; 0.01-10 nM,inhibited endothelial cell morphogenesis on Matrigel in a dose-dependent manner
"rituximab: the anti-CD20 antibody, rituximab",specific lysis,BCWM.1 cells [18],37.7%
